Experimental data published in US8791155B2, “Chroman derivatives” (Edison Pharmaceuticals, Inc., priority 2003, dated 2014).

Test system: dopaminergic neuronal cell line
Test: High glutamate-induced oxidative stress assay (HGOS)
Format: cell-based
Conditions: Mus musculus; 30 mM glutamate, 16 hrs; read-out: EC50, protection against HGOS cell injury and cell death
How it was run: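 Mouse dopaminergic cells were grown 72 h at 33° C, washed into HBSS, then exposed to compounds in glucose-free DMEM with 1 mM glucose and 30 mM glutamate for 16 h at 37° C. Viability was read as Cell Tracker Green fluorescence at 485/538 nm after 30 min of 5 μM dye loading.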

| Compound | EC50 |
| --- | --- |
| CC1=NN(c2ccccc2)C(=O)C1C(CCC1(C)CCc2cc(O)c(C)c(C)c2O1)C1C(=O)N(c2ccccc2)N=C1C (centres unmarked) [1-(6-Hydroxy-2,7,8-trimethyl-chroman-2-yl)-3-bis-(5-methyl-2-phenyl-2,4-dihydro-pyrazol-3-one-4-yl)-propane] | < 5 µM |
| Cc1c(C)c2c(c(C)c1O)CCC(C)(C=C(Br)Br)O2 (centres unmarked) [2-(2,2-Dibromo-vinyl)-2,5,7,8-tetramethyl-chroman-6-ol] | < 5 µM |
| COC(=O)c1ccc(-c2c(O)c(C)c(C)c3c2CCC(C)(C)O3)cc1 [4-(6-Hydroxy-2,2,7,8-tetramethyl-chroman-5-yl)-benzoic acid methyl ester] | < 5 µM |
| C=CCSCc1c(O)c(C)c(C)c2c1CCC(C)(C)O2 [5-Allylsulfanylmethyl-2,2,7,8-tetramethyl-chroman-6-ol] | < 5 µM |
| Cc1c(O)cc2c(c1C)OC(C)(CC/C=C1\SC(=O)NC1=O)CC2 (centres unmarked) [5-[3-(6-Hydroxy-2,7,8-trimethyl-chroman-2-yl)-propylidene]-thiazolidine-2,4-dione] | < 5 µM |
